Test [1] has as its system Streptococcus mutans 6715 strain. The experiment in a line: Organic acid formation from saccharides by Streptococcus mutans cells, pH-measurement (Experiment 4). The test is classed as cell-based. As to conditions: 37° C., 30 minutes; for pH-Level of the reaction mixture (organic acid formation): cell suspension, Stephan's buffer (pH 7.0), saccharide solution; for organic acid formation from the saccharide: Streptococcus mutans 6715 cells. The procedure: Organic acid formation from some saccharides by Streptococcus mutans was tested: Streptococcus mutans 6715 strain was cultivaed similarly as in EXPERIMENT 1, and the cells, obtained by centrifuging the culture, were washed with 0.9 w/v % sodium chloride solution, followed by additional centrifugation. Two ml of a mixture solution, consisting of 0.2 ml of the cell suspension, prepared from about 100 ml of the culture, 1.5 ml of Stephan's buffer, and 0.3 ml aqueous solution of each saccharide as listed in TABLE II, was incubated at 37° C. for 30 minutes, followed by pH-measurement of the reaction mixture. The Stephan's buffer was prepared by the method as reported by R. M. Stephan et al., Journal of Dental Research, Vol.26, pp.15-41 (1947): One ml of Solution I, prepared by dissolving 17.89 g Na2 HPO4. 12H2 O, 7.92 g KOH and 6.81 g KH2 PO4 in water to give a final volume of 100 ml, was placed in a 100-ml volumetric flask, and mixed with about 90 ml of water. To the flask was added 1 ml of Solution II, prepared by dissolving 4.54 g KH2 PO4, 0.32 g MgSO4.7H2 O, 0.57 g CaSO4.2H2 O and 10 ml of 3.5% hydrochloric acid solution in water to give a final volume of 100 ml. This mixture was diluted with additional water to obtain 100 ml of Stephan's buffer (pH 7.0).
The results are given in TABLE II, wherein the organic acid formation from the saccharides can be estimated by the pH-values.

The target in test [2] is T1, water-insoluble glucan producing enzyme (Streptococcus downei, UniProt P27470).
T1 construct: endogenous in cells; host or cells: Streptococcus mutans 6715 strain (today S. sobrinus), culture supernatant, ammonium sulfate precipitate, dialyzed
The test is described as follows: Effect of saccharides on formation of water-insoluble glucan from sucrose (Experiment 3). The test is classed as biochemical, Streptococcus mutans 6715 strain. The following applies: 1 ml 4 w/v % sucrose plus 1 ml 4 w/v % saccharide, 0.02 units enzyme, 37° C., 16 hours; for A: amounts of water-insoluble glucan formed: sucrose control 300. The method, then:
After completion of the cultivation, the culture was separated into cell precipitant and supernatant. Thereafter, to the supernatant was added with ammonium sulfate to give 60% saturation, and the resultant precipitant was dialyzed against 0.1M phosphate buffer (pH 7.2) to obtain an aqueous solution containing the enzyme.
The titers of the enzyme were assayed as follows: A mixture solution, consisting of 1 ml of 0.2M aqueous sucrose solution, 1 ml of water, 1 ml of 0.1M phosphate buffer containing 0.05 w/v % NaN3, and 0.5 ml of the enzyme solution (below 0.05 units), is incubated at 37° C. for 9 hours, followed by centrifugation of the reaction mixture. The resultant precipitant is mixed with 4 ml of 0.5N sodium hydroxide solution, and then incubated at this temperature for an additional one hour to dissolve the precipitant. The amount of water-insoluble glucan formed during the enzymatic reaction is then measured. One unit of the enzyme is defined as the amount of enzyme that transfers 1 μmole glucose from sucrose to the water-insoluble glucan in one minute.
Effects of some saccharides on the formation of water-insoluble glucan were tested: Water-insoluble glucan formation and inhibition thereof were determined according to the enzyme assay method as described in EXPERIMENT 1, except that the mixture solution contained sucrose, or sucrose and each saccharide as listed in TABLE I. The experiment was carried out as follows: A mixture solution, consisting of 1 ml of 4 w/v % aqueous sucrose solution, 1 ml of 4 w/v % aqueous solution of each saccharide as listed in TABLE I, 1.5 ml of 0.1M phosphate buffer containing 0.05 w/v % NaN3, and 0.5 ml of the enzyme solution (0.02 units), was incubated at 37° C. for 16 hours, and the water-insoluble glucan formation in the reaction mixture was determined according to the enzyme assy method.
In a control experiment, 1 ml of the above described saccharide solution was replaced with the same amount of water.
The inhibition degree was calculated with following equation:
Inhibition degree (%)=100-A/B×100
where A and B are respective amounts of the water-insoluble glucan formed (μg/ml) when the mixture solution contained sucrose or sucrose and each of the saccharides.

T1 sequence (P27470 39-1592): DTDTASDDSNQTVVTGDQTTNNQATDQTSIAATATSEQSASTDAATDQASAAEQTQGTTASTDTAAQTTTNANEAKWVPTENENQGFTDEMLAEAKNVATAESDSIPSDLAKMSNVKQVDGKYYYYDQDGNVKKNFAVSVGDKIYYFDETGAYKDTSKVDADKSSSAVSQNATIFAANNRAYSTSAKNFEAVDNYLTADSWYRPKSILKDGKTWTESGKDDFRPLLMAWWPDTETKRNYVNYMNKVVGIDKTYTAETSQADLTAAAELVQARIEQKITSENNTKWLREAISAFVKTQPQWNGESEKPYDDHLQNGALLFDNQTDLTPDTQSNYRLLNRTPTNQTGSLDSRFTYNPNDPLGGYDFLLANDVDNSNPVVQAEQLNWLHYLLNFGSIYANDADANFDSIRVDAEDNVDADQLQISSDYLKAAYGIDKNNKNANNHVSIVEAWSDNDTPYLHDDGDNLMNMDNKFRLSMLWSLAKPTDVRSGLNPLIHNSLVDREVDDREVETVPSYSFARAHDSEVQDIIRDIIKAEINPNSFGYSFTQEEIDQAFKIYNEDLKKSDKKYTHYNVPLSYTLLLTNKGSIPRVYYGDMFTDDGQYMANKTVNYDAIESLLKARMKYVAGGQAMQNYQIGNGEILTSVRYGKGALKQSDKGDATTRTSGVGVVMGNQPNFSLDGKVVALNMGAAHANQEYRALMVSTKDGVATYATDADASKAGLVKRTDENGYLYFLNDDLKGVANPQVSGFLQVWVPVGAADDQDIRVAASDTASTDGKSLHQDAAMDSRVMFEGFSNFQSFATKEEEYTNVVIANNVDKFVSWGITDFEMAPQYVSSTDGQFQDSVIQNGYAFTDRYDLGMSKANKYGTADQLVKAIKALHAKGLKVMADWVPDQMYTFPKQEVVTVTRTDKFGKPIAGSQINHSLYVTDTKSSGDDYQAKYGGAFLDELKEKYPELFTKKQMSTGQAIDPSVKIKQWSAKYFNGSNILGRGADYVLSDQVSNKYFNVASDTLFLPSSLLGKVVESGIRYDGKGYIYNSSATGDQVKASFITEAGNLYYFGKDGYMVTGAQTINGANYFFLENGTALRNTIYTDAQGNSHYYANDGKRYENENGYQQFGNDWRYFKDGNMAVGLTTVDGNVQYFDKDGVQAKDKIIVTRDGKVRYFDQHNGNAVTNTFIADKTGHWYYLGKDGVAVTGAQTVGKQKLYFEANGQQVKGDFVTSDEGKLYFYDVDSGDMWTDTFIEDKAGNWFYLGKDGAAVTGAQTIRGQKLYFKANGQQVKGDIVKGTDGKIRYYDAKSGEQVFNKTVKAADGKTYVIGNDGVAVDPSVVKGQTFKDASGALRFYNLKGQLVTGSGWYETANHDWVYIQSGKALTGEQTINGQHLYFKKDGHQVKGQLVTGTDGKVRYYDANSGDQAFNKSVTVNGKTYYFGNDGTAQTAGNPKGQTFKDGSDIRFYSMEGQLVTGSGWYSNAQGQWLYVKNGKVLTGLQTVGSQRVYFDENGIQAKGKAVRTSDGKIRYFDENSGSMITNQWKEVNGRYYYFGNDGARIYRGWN

For the compound `OC1OC[C@H](O)[C@H](O)[C@H]1O` (stereo partly drawn) [L-Arabinose], the “pH-Level of the reaction mixture (organic acid formation)” value (“pH-Level of the reaction mixture” below) in test [1] worked out at 7.0. In addition, in test [2], the “B: inhibition degree on water-insoluble glucan formation” value (from here on “B: inhibition degree”) stood at 2% and the “A: amounts of water-insoluble glucan formed” value (“A: amounts” below) was 294 µg/mL.

Regarding `OC[C@H]1O[C@@H](OC[C@H]2OC(O)[C@H](O)[C@@H](O)[C@@H]2O)[C@H](O)[C@@H](O)[C@@H]1O` (stereo partly drawn) [Gentiobiose], in test [1], the “pH-Level of the reaction mixture” value is recorded as 7.0. Moreover, the “A: amounts” value in test [2] turned out to be 300 µg/mL.

In the case of `O=C(CO)[C@@H](O)[C@H](O[C@H]1O[C@H](CO)[C@@H](O)[C@H](O)[C@H]1O)[C@H](O)CO` [Maltulose], the “pH-Level of the reaction mixture” value in test [1] was 7.0. Moreover, in test [2], the “B: inhibition degree” value worked out at 40% and the “A: amounts” value was determined as 180 µg/mL.

With `OC[C@H](O)[C@@H](O)[C@H](O)[C@H](O)CO[C@H]1O[C@H](CO[C@H]2O[C@H](CO[C@H]3O[C@H](CO[C@H]4O[C@H](CO)[C@@H](O)[C@H](O)[C@H]4O)[C@@H](O)[C@H](O)[C@H]3O)[C@@H](O)[C@H](O)[C@H]2O)[C@@H](O)[C@H](O)[C@H]1O` [Isomaltopentaitol, 6^3 -O-α-isomaltosyl isomaltotriitol], in test [1], the “organic acid formation from the saccharide” value is “no organic acid formation” and the “pH-Level of the reaction mixture” value turned out to be 7.0. In addition, the “A: amounts” value in test [2] stood at 66 µg/mL.

On to `OC[C@H]1O[C@H](O[C@H]2[C@H](O)[C@@H](O)[C@@H](OC[C@H]3OC(O)[C@H](O)[C@@H](O)[C@@H]3O)O[C@@H]2CO)[C@H](O)[C@@H](O)[C@@H]1O` (stereo partly drawn) [Isopanose], for which the “pH-Level of the reaction mixture” value in test [1] is 7.0. Further, in test [2], the “B: inhibition degree” value turned out to be 4% and the “A: amounts” value is 282 µg/mL.

With `OC[C@H]1O[C@@H](O[C@@H]2[C@@H](CO)OC(O)(CO)[C@H]2O)[C@H](O)[C@@H](O)[C@H]1O` (mixture of isomers) [Lactulose], the “pH-Level of the reaction mixture” value in test [1] is on record as 7.0. In test [2], the “B: inhibition degree” value is recorded as 12% and the “A: amounts” value stood at 264 µg/mL.

In the case of `OC[C@H]1O[C@@](CO)(OC[C@H]2O[C@](O)(CO)[C@@H](O)[C@@H]2O)[C@@H](O)[C@@H]1O` [Levanbiose], the “pH-Level of the reaction mixture” value in test [1] stood at 6.5. Further, in test [2], the “B: inhibition degree” value is reported as 4% and the “A: amounts” value came to 288 µg/mL.

As for `OC[C@H](O)[C@@H](O)[C@H](O)[C@H](O)CO[C@H]1O[C@H](CO)[C@@H](O)[C@H](O)[C@H]1O` [Isomaltitol], in test [1], the “pH-Level of the reaction mixture” value turned out to be 7.0. In test [2], the “B: inhibition degree” value is listed as 10% and the “A: amounts” value is 270 µg/mL.

On to `OC[C@H](O)[C@@H](O)[C@H](O)[C@H](O)CO[C@H]1O[C@H](CO[C@H]2O[C@H](CO[C@H]3O[C@H](CO)[C@@H](O)[C@H](O)[C@H]3O)[C@@H](O)[C@H](O)[C@H]2O)[C@@H](O)[C@H](O)[C@H]1O` [Isomaltotetraitol, 6^2 -O-α-isomaltosyl isomaltitol], for which, in test [1], the “organic acid formation from the saccharide” value is recorded as “no organic acid formation” and the “pH-Level of the reaction mixture” value was found to be 7.0. Moreover, the “A: amounts” value in test [2] came out at 45 µg/mL.

For the compound `CO[C@H]1O[C@H](CO)[C@@H](O)[C@H](O)[C@H]1O` [Methyl-α-D-Glucose], the “pH-Level of the reaction mixture” value in test [1] is reported as 7.0. In addition, the “B: inhibition degree” value in test [2] worked out at 14%.

Take `OC[C@H]1O[C@H](O[C@H]2O[C@H](CO)[C@@H](O)[C@H](O)[C@H]2O)[C@H](O)[C@@H](O)[C@@H]1O` [Trehalose]: in test [1], the “pH-Level of the reaction mixture” value was 7.0. Further, in test [2], the “B: inhibition degree” value came out at 1% and the “A: amounts” value was found to be 297 µg/mL.

Consider `OC[C@H]1O[C@H](O[C@H]2[C@H](O)[C@@H](O)[C@@H](O[C@H]3[C@H](O)[C@@H](O)[C@@H](O[C@H]4[C@H](O)[C@@H](O)C(O)O[C@@H]4CO)O[C@@H]3CO)O[C@@H]2CO)[C@H](O)[C@@H](O)[C@@H]1O` (stereo partly drawn) [Maltotetraose], for which, in test [1], the “pH-Level of the reaction mixture” value worked out at 5.3. For the same compound, in test [2], the “B: inhibition degree” value is recorded as 15% and the “A: amounts” value amounted to 255 µg/mL.

Turning to `CC(=O)N[C@H]1C(O)O[C@H](CO)[C@@H](O)[C@@H]1O` (stereo partly drawn) [N--Acetyl glucosamine], in test [1], the “pH-Level of the reaction mixture” value is listed as 7.0. In addition, in test [2], the “B: inhibition degree” value came to 5% and the “A: amounts” value turned out to be 285 µg/mL.

As to `OC[C@H]1O[C@H](OC[C@H]2OC(O)[C@H](O)[C@@H](O)[C@@H]2O)[C@H](O)[C@@H](O)[C@@H]1O` (stereo partly drawn) [Isomaltose], in test [1], the “pH-Level of the reaction mixture” value was found to be 7.0. Also, the “A: amounts” value in test [2] came to 72 µg/mL.

As for `O=C(CO)[C@@H](O)[C@H](O)[C@@H](O)CO` [L-Sorbose], the “pH-Level of the reaction mixture” value in test [1] was 7.0. In test [2], the “B: inhibition degree” value was determined as 13% and the “A: amounts” value is 261 µg/mL.

For Inulobiose, the “pH-Level of the reaction mixture” value in test [1] came to 4.5. Moreover, in test [2], the “B: inhibition degree” value amounted to 8% and the “A: amounts” value amounted to 276 µg/mL.

Take `OC[C@H]1O[C@@](CO)(OC[C@H]2O[C@@](CO)(O[C@H]3O[C@H](CO)[C@@H](O)[C@H](O)[C@H]3O)[C@@H](O)[C@@H]2O)[C@@H](O)[C@@H]1O` [6-Kestose]: the “pH-Level of the reaction mixture” value in test [1] turned out to be 6.8. Besides, in test [2], the “B: inhibition degree” value was 3% and the “A: amounts” value is 291 µg/mL.

With `OC[C@@H](O)[C@@H](O[C@H]1O[C@H](CO[C@H]2O[C@H](CO)[C@@H](O)[C@H](O)[C@H]2O)[C@@H](O)[C@H](O)[C@H]1O)[C@H](O)[C@@H](O)CO` [Pannitol, 4-O-α-isomaltosyl glucitol], in test [1], the “organic acid formation from the saccharide” value was “no organic acid formation” and the “pH-Level of the reaction mixture” value turned out to be 7.0. In test [2], the “A: amounts” value was found to be 70 µg/mL.

In the case of `OC[C@H]1OC(O)C[C@@H](O)[C@@H]1O` (stereo partly drawn) [2-Deoxy Glucose], the “pH-Level of the reaction mixture” value in test [1] is recorded as 7.0. For the same compound, in test [2], the “B: inhibition degree” value was 5% and the “A: amounts” value came to 285 µg/mL.

`OC[C@H]1O[C@H](O[C@H]2[C@H](O)[C@@H](O)[C@@H](O[C@H]3[C@H](O)[C@@H](O)[C@@H](O[C@H]4[C@H](O)[C@@H](O)[C@@H](O[C@H]5[C@H](O)[C@@H](O)C(O)O[C@@H]5CO)O[C@@H]4CO)O[C@@H]3CO)O[C@@H]2CO)[C@H](O)[C@@H](O)[C@@H]1O` (stereo partly drawn) [Maltopentaose]: in test [1], the “pH-Level of the reaction mixture” value came to 5.6. In addition, in test [2], the “B: inhibition degree” value is 12% and the “A: amounts” value came out at 264 µg/mL.

`OC[C@H](O)[C@@H](O)[C@H](O)[C@H](O)CO[C@H]1O[C@H](CO)[C@@H](O[C@H]2O[C@H](CO)[C@@H](O)[C@H](O)[C@H]2O)[C@H](O)[C@H]1O` [Isopannitol]: in test [1], the “pH-Level of the reaction mixture” value stood at 7.0. In test [2], the “B: inhibition degree” value is reported as 10% and the “A: amounts” value came to 270 µg/mL.

Source of the values: US4518581A, “Imparting low- or anti-cariogenic property to orally-usable products” (Kabushiki Kaisha Hayashibara Seibutsu Kagaku Kenkyujo, priority 1981, dated 1985).
